In test [1] the test system is Tumor cells HEp2 (Human Epidermoid Carcinoma). The test can be described thus: Imaging of tumor in model mouse, tumor/muscle radioactivity ratio. Format: in vivo, BALB/C nude mouse. The conditions noted are these: i.v. As for the experimental part: Tumor cells HEp2 (5×10^6 cells, Human Epidermoid Carcinoma; ATCC No. CCL 23) were suspended in 1.0 ml of medium (Minimum essential medium (Eagle's) with Earle's BSS, 90% fetal bovine serum, 10%), and 100 μl of the suspension was subcutaneously injected to BALB/C nude mouse (6 weeks age) at the body side. […] Five and 20 minutes after the injection, the animal was imaged with a gamma camera.
Immediately after the imaging, the animal was sacrificed and examined for the distribution of the radioactivity in each organ using NaI single channel analyzer to determine a ratio of the radioactivity in tumor site to the radioactivity in muscle site (T/B ratio).

The subject of test [2] is inflammation site (Staphylococcus aureus). The conditions noted are these: S. aureus inflammation rat, i.v. As for the experimental part:
Staphylococcus aureus 10^8 cells were suspended in 1 ml of physiological saline, and 100 μl of the suspension was intramuscularly administered to SD rats weighing about 220 g at the right calf. […] Thirty and 120 minutes after the peptide was injected, the animal was imaged with a gamma camera. Regions of interest were selected from the obtained image to determine a ratio T/B of the radioactivity in inflammation site (T) to the radioactivity in normal site (B).

Where no end group is shown, it is not given here.

With “Tc-99m-KYCAREPPTRTNAYWGQG (also: Tc-99m label)”, the “Imaging of tumor site (gamma camera)” value in test [1] (20 minutes after injection) was “clearly imaged”. Moreover, in test [1] (twenty minutes after injection, n=3), the “ratio of the radioactivity in tumor site to the radioactivity in muscle site (T/B ratio)” value is on record as 4.50±0.71.

Regarding Tc-99m-KYCGGKTKPREQQYNSTYRVV-NH2, the “Imaging of inflammation site (gamma camera)” value in test [2] (30 and 120 minutes after injection) is recorded as “clearly imaged”. Besides, the “ratio T/B of the radioactivity in inflammation site (T) to the radioactivity in normal site (B)” value in test [2] (regions of interest of image, n=6) stood at 3.26±0.18.

(Values after patent US5770178A, “Metal chelate forming peptides and use thereof” (Nihon Medi-Physics Co., Ltd., priority 1994, dated 1998).)
